Holding throughout (type): cell-based, human
The subject of one data set is PDK4. Nature of the data set: proteomics (mass spectrometric) data, PDK4 expression. The following applies: miR-211-expressing melanoma cells. The protocol:
Deep-sequencing (RNA-seq) and proteomics (mass spectrometry) data from two melanoma cell lines A375 and WM1552C, each expressing miR-211 or the empty vector, were generated. […] Energy consumption was investigated in miR-211-expressing cells. Using the Seahorse XF96 Analyzer, it was determined that miR-211-expressing melanoma cells (A375) consumed nearly double the amount of oxygen as control cells expressing the empty vector (FIG. 35). […] Finally, we measured the level of hypoxia-inducible factor 1 alpha (HIF-1α) in miR-211-expressing cells. HIF-1α expression was reduced by miR-211 expression which is an indication of cellular respiration changes (FIG. 37).
(§1) This target was further confirmed by the cleavage assay, and the downregulation was verified by western blot analysis (FIG. 38). Similarly, peroxisome proliferator-activated receptor-γ coactivator (PGC1α) was identified by the proteomics data and validated by western blot analysis. PGC1α is a low express gene in A375 cells, but it is been targeted by miR-211 according to target cleavage and qPCR results. Finally, insulin-like growth factor-binding protein 5 (IGFBP5) was identified through the RNA-seq data and results are illustrated in FIG. 34.

In another data set the test system is KCNMA1 transcript. Nature of the data set: qRT-PCR of KCNMA1 transcript in WM1552C lines. The note with it: WM1552C/211(400). The method, then:
Expression levels of all statistically significant and differentially expressed mRNAs and miRNAs were confirmed by qRT-PCR using TaqMan® expression kits (Applied Biosystems) using multiple technical and biological replicates. GAPDH was used as the internal reference probe for normalization of expression values of mRNA, and RNU48 was used for normalization of miRNA. RNA analysis by Northern blots used 20 μg of total RNA concentrated from each sample (melanoma cell lines and melanocytes), separated on 15% urea denaturing polyacrylamide gels by electrophoresis. Gels were electroblotted to nylon membranes, cross-linked by UV, prehybridized in ULTRAhyb®-Oligo (Ambion) for 30 minutes at 42° C., and hybridized with 5′-biotinylated anti-miRNA DNA oligonucleotides (100 nM each) at 42° C. overnight, washed, and detected by chemiluminescence (Brightstar® detection kit, Ambion). Anti-U6 probes were used as a reference control (at 10 pM).
qRT-PCR analyses were then run to determine whether the induced expression of miR-211 in melanoma cells could reduce KCNMA1 transcript levels. […] To further confirm our observations, we measured the correlation between miR-211 expression and KCNMA1 protein levels (FIG. 6D). […] Melanocytes were transfected with anti-miR-211 inhibitors (Exiqon) and the protein expression of KCNMA1 was measured.
A general note: In qPCR the cycle at which signal appears reflects the starting amount.

For a further data set, the system named is WM1552C cells. Nature of the data set: cell counts in hypoxic chamber (2% O2), WM1552C/211. The following applies: WM1552C/211 cells, hypoxic chamber 2% O2 (parental WM1552C about 64%). An excerpt:
To test under actual hypoxic conditions, both cell lines were placed into a hypoxic chamber containing 2% O2 prior to determination of cell counts. […] As in the DFO-simulated hypoxic condition assay, the presence of miR-211 caused the effect to be greatly exacerbated, reducing survival to about 29%.

The subject of the next data set is PDK4 protein. Nature of the data set: western blot of PDK4 protein. The note with it: miR-211-expressing melanoma cells, gel (FIG. 38).
Excerpt: as §1

Data set [1] relates to A375 cells. Nature of the data set: abundance of mitochondria, MitoTracker. The following applies: miR-211-expressing cells.
The test system of data set [2] is A375 cells. Description: lipid species (PI acyl chains) by mass spectrometry in A375 vs A375/211. The note with it: A375/211 vs A375 cells. An excerpt:
To determine the effect of miR-211 expression in A375 cells on the production of lipid species, as an indicator of metabolic change, fatty acids were isolated and quantitated in A375 cells and A375/211 by mass spectrometry. […] This confirms that miR-211 is capable of altering the metabolic profile of these metabolic cells.

In the next data set the test system is WM1552C melanoma cells. Nature of the data set: cell proliferation (cell counts) of WM1552C lines. The protocol: The over-expression of KCNMA1 is often associated with both cell proliferation and cell migration/invasion in various cancers. Therefore, the effects of depletion of miR-211 and associated over-expression of KCNMA1 on these process in melanoma cells were determined. Proliferation rates of melanoma cell lines stably transfected with the miR-211 expression cassette were compared with those of untransfected melanoma cells and cell lines transfected with the empty expression vector (FIG. 8A), respectively.
Assays were performed using WM1552C, WM1552C/VO, WM1552C/211(400), WM1552C/211(800), A375, A375/VO, and A375/211 cell lines. Cells were grown in log phase, trypsinized, counted using an automated cell counter (Cellometer®, Nexcelom Bioscience), and then seeded into 75 cm^2 flasks at 5×10^5 cells per flask (in triplicate). Media was changed after 6 hours, and cells were further fed every 48 hours (Complete Tu Media). At days 4, 10, 15, and 21, cells were trypsinized, counted (Cellometer®, Nexcelom Bioscience), and then reseeded. Each assay was performed in duplicate for all cell lines.

On to “miR-211: pre-miR-211 sequence stably expressed from plasmid pcDNA4/miR-211 in melanoma cells; mature sequence UUCCCUUUGUCAUCCUUCGCCU (SEQ ID NO: 15) (listed as Homo sapiens)”, for which the PDK4 expression entry with PDK4 is on record as “heavily downregulated”. For the same substance, the “KCNMA1 transcript expression vs wild type WM1552C” value with KCNMA1 transcript is “down-regulates”. Besides, the “survival vs normoxic condition cells” value in the data set on WM1552C cells was found to be 34%. The PDK4 protein expression entry in the data set on PDK4 protein is on record as “virtually undetectable”. For the same substance, the “number of mitochondria vs empty vector-expressing cells” value in the data set on A375 cells [1] is “higher number of mitochondria”. In the data set on A375 cells [2], the “content of 18:0-18:2 acyl chains” value is reported as “large increase” and the “content of 18:0-20:4 acyl chains” value is “large decrease”. For the same substance, the “decrease in cell counts compared to WM1552C” value with WM1552C melanoma cells (WM1552C/211(400), after a 21-day period) is “greater than 30%”. For the same substance, the “decrease in cell proliferation compared to WM1552C” value in the data set on WM1552C melanoma cells (WM1552C/211(800), after a 21-day period) is “even greater decrease”. Besides, the “decrease in growth over the invasion assay period” value with WM1552C melanoma cells (WM1552C/211 cells, 48 hours) is reported as 8-10%.

Source of the values: patent US9994915B2, “miR-211 expression and related pathways in human melanoma” (Sanford-Burnham Medical Research Institute, priority 2010, dated 2018).
